Reference: the NIST ThermoML archive (doi:10.1021/je600519p)

Assay: xn = mol fraction of the nth substance listed
Details: 101 kPa, Liquid

CC(=O)c1ccccc1 [acetophenone] + CCCCCCO
Details	mass density, 313.15 K [kg/m3]	mass density, 323.15 K [kg/m3]	speed of sound, 313.15 K [m/s]	speed of sound, 323.15 K [m/s]	viscosity, 313.15 K [mPa·s]	viscosity, 323.15 K [mPa·s]
x1 = 0.0498	813.97	806.47	1277	1230	2.684	2.119
x1 = 0.1009	823.85	816.28	1285	1238	2.481	1.97
x1 = 0.1517	833.75	826.11	1293	1247	2.292	1.831
x1 = 0.2106	845.32	837.59	1303	1259	2.104	1.69
x1 = 0.2474	852.58	844.8	1310	1266	1.977	1.585
x1 = 0.3028	863.61	855.74	1320	1278	1.812	1.48
x1 = 0.3426	871.57	863.65	1328	1287	1.697	1.395
x1 = 0.3978	882.7	874.71	1339	1298	1.58	1.307
x1 = 0.4512	893.55	885.48	1350	1308	1.483	1.236
x1 = 0.4985	903.23	895.1	1360	1316	1.396	1.169
x1 = 0.5526	914.38	906.19	1370	1326	1.322	1.118
x1 = 0.6071	925.7	917.44	1380	1335	1.263	1.075
x1 = 0.6491	934.49	926.17	1387	1342	1.255	1.069
x1 = 0.7101	947.35	938.95	1398	1351	1.243	1.073
x1 = 0.7485	955.5	947.06	1404	1356	1.252	1.075
x1 = 0.8019	966.9	958.4	1408	1361	1.264	1.073
x1 = 0.8521	977.72	969.16	1409	1365	1.266	1.067
x1 = 0.9045	989.09	980.48	1411	1370	1.271	1.076
x1 = 0.9554	1000.23	991.56	1416	1372	1.276	1.086
